Here are results for two molecules from PubChem BioAssay (NCI).

Common to all, as to experiment: inhibition of tumour cell growth, NCI panel, 48 h
In test [1] the test system is SN12C renal.
Test [2] deals with PC-3 prostate.
In test [3] the test system is NCI-H226 lung.
In test [4] the test system is OVCAR-3 ovarian.
Test [5] deals with HL-60(TB) leukemia.
Test [6] concerns ACHN renal.
Test [7] deals with NCI-H23 lung.
Test [8] concerns NCI-H460 lung.
For test [9], the system named is 786-0 renal.
Test [10] concerns MDA-MB-231 breast.

The structures appear in SMILES notation.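 Dose response: 5 concentrations. Exposure: 48 h. Format: 96-well plates. Endpoint: linear interpolation; highest concentration if not reached. Here, GI50 denotes the concentration required for 50% inhibition of growth. TGI is the concentration that stops growth completely.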

In the case of `O=C1CCc2c(sc3[nH]c(=S)n(Cc4ccc(Cl)cc4)c(=O)c23)C1`, the GI50 in test [1] was 384 nM; in [2] it was 309 nM; in test [3], 1990 nM; in test [4], 385 nM; in test [5], 347 nM; in test [6], 465 nM. For the same molecule, the GI50 was 345 nM in test [7], 377 nM in [8], 1230 nM in test [9] and 379 nM in [10]. The TGI in test [1] is more than 84700 nM; in test [2], more than 35800 nM; in test [3], 14500 nM; in test [4] it was more than 55600 nM; in [5], 1810 nM; in test [6], 3630 nM. Besides, the TGI in test [7] was 2680 nM; in test [8], 3700 nM; in [9] it was more than 100000 nM; in [10] it was 1680 nM.

`CCOc1ccc2nc(NC(=O)C(=O)C(c3cnc4ccccc4n3)[N+](=O)[O-])sc2c1` (stereo not given): the TGI in test [1], in test [2], in [3], in test [4], in test [5] and in test [6] was more than 100000 nM in each case. For the same molecule, the TGI in test [7], in [8], in test [9] and in [10] was more than 100000 nM throughout.
